In brackets after ≈: the same amount, converted by molar mass.
How the values were obtained:
Type in all cases: functional
[1] = tested on: Candida albicans; experiment: Antifungal activity against fluconalzole-susceptible Candida albicans after 24 hrs
[2] = tested on: Candida parapsilosis; experiment: Antifungal activity against fluconalzole-susceptible Candida parapsilosis after 24 hrs; conditions: Lodderomyces parapsilosis
[3] = tested on: Candida parapsilosis; experiment: Antifungal activity against Candida parapsilosis; conditions: Lodderomyces parapsilosis
[4] = tested on: Cryptococcus neoformans; experiment: Antifungal activity against Cryptococcus neoformans; conditions: Cryptococcus neoformans
[5] = tested on: Candida albicans; experiment: Antifungal activity against Candida albicans; conditions: Candida albicans
[6] = tested on: Candida tropicalis; experiment: Antifungal activity against Candida tropicalis; conditions: Candida tropicalis
[7] = tested on: Pichia kudriavzevii; experiment: Antifungal activity against Candida krusei
[8] = tested on: Candida tropicalis; experiment: Potency index, ratio of fluconazole MIC to test compound MIC for Candida tropicalis
[9] = tested on: Trichophyton rubrum; experiment: Antifungal activity against Trichophyton rubrum after 24 hrs by microbroth dilution method
[10] = tested on: Microsporum canis; experiment: Antifungal activity against Microsporum canis after 24 hrs by microbroth dilution method
[11] = tested on: Candida albicans; experiment: Potency index, ratio of fluconazole MIC to test compound MIC for Candida albicans ATCC 76615
[12] = tested on: Trichophyton rubrum; experiment: Potency index, ratio of fluconazole MIC to test compound MIC for Trichophyton rubrum
[13] = tested on: Fonsecaea compacta; experiment: Antifungal activity against Fonsecaea compacta after 24 hrs by microbroth dilution method
[14] = tested on: Microsporum canis; experiment: Potency index, ratio of fluconazole MIC to test compound MIC for Microsporum canis
[15] = tested on: Fonsecaea compacta; experiment: Potency index, ratio of fluconazole MIC to test compound MIC for Fonsecaea compacta
[16] = tested on: Aspergillus fumigatus; experiment: Antifungal activity against Aspergillus fumigatus after 24 hrs by microbroth dilution method
[17] = tested on: Aspergillus fumigatus; experiment: Potency index, ratio of fluconazole MIC to test compound MIC for Aspergillus fumigatus
[18] = tested on: Candida tropicalis; experiment: Antifungal activity against Candida tropicalis after 24 hrs by microbroth dilution method
[19] = tested on: Cryptococcus neoformans; experiment: Potency index, ratio of fluconazole MIC to test compound MIC for activity against Cryptococcus neoformans ATCC 32609

Compound	MIC [1]	MIC [2]	MIC80 [3]	MIC80 [4]	MIC80 [5]	MIC80 [6]	MIC80 [7]	further results
OC(Cn1cncn1)(Cn1cnc(SCc2ccc(F)cc2)n1)c1ccc(F)cc1F (stereo not given)	0.063 to 1 µg/mL (≈ 0.141 to 2.24 µM)	0.063 to 1 µg/mL (≈ 0.141 to 2.24 µM)						
CN(CC(=O)Nc1ccc(Cl)cc1)CC(O)(Cn1cncn1)c1ccc(F)cc1F (stereo not given)			0.25 to 1 µg/mL (≈ 0.574 to 2.29 µM)	0.0156 µg/mL (≈ 0.0358 µM)	0.0156 µg/mL (≈ 0.0358 µM)	0.25 to 1 µg/mL (≈ 0.574 to 2.29 µM)	0.25 to 1 µg/mL (≈ 0.574 to 2.29 µM)	
CN(CC(=O)Nc1ccc(Cl)c(Cl)c1)CC(O)(Cn1cncn1)c1ccc(F)cc1F (stereo not given)			0.25 to 1 µg/mL (≈ 0.532 to 2.13 µM)	0.0156 µg/mL (≈ 0.0332 µM)	0.0156 µg/mL (≈ 0.0332 µM)	0.25 to 1 µg/mL (≈ 0.532 to 2.13 µM)	0.25 to 1 µg/mL (≈ 0.532 to 2.13 µM)	
CN(CC(=O)Nc1ccccc1)CC(O)(Cn1cncn1)c1ccc(F)cc1F (stereo not given)			0.25 to 1 µg/mL (≈ 0.623 to 2.49 µM)	0.0156 µg/mL (≈ 0.0389 µM)	0.0156 µg/mL (≈ 0.0389 µM)	0.25 to 1 µg/mL (≈ 0.623 to 2.49 µM)	0.25 to 1 µg/mL (≈ 0.623 to 2.49 µM)	
Cc1ccc(CN(CC(O)(Cn2cncn2)c2ccc(F)cc2F)C2CC2)cc1 (stereo not given)								Ratio [8]: 4; MIC80 [9]: 0.125 µg/mL (≈ 0.314 µM); MIC80 [10]: 0.125 µg/mL (≈ 0.314 µM); Ratio [11]: 4; Ratio [12]: 4; MIC80 [13]: 0.125 µg/mL (≈ 0.314 µM); Ratio [14]: 4; Ratio [15]: 4; MIC80 [16]: 0.125 µg/mL (≈ 0.314 µM); Ratio [17]: 4; MIC80 [18]: 0.125 µg/mL (≈ 0.314 µM); Ratio [19]: 4
OC(Cn1cncn1)(Cn1cnc(SCc2ccc(Cl)c(Cl)c2)n1)c1ccc(F)cc1F (stereo not given)	0.063 to 1 µg/mL (≈ 0.127 to 2.01 µM)	0.063 to 1 µg/mL (≈ 0.127 to 2.01 µM)						
Cc1cc(C)cc(NC(=O)CN(C)CC(O)(Cn2cncn2)c2ccc(F)cc2F)c1 (stereo not given)			0.25 to 1 µg/mL (≈ 0.582 to 2.33 µM)	0.0156 µg/mL (≈ 0.0363 µM)	0.0156 µg/mL (≈ 0.0363 µM)	0.25 to 1 µg/mL (≈ 0.582 to 2.33 µM)	0.25 to 1 µg/mL (≈ 0.582 to 2.33 µM)	
OC(CN(Cc1ccc(F)cc1F)C1CC1)(Cn1cncn1)c1ccc(F)cc1F (stereo not given)								Ratio [8]: 4; MIC80 [9]: 0.125 µg/mL (≈ 0.297 µM); MIC80 [10]: 0.125 µg/mL (≈ 0.297 µM); Ratio [11]: 4; Ratio [12]: 4; MIC80 [13]: 0.125 µg/mL (≈ 0.297 µM); Ratio [14]: 4; Ratio [15]: 4; MIC80 [16]: 0.125 µg/mL (≈ 0.297 µM); Ratio [17]: 4; MIC80 [18]: 0.125 µg/mL (≈ 0.297 µM); Ratio [19]: 4
OC(CN(Cc1ccc(Br)cc1)C1CC1)(Cn1cncn1)c1ccc(F)cc1F (stereo not given)								Ratio [8]: 4; MIC80 [9]: 0.125 µg/mL (≈ 0.27 µM); MIC80 [10]: 0.125 µg/mL (≈ 0.27 µM); Ratio [11]: 4; Ratio [12]: 4; MIC80 [13]: 0.125 µg/mL (≈ 0.27 µM); Ratio [14]: 4; Ratio [15]: 4; MIC80 [16]: 0.125 µg/mL (≈ 0.27 µM); Ratio [17]: 4; MIC80 [18]: 0.125 µg/mL (≈ 0.27 µM); Ratio [19]: 4
Cc1ccc(NC(=O)CN(C)CC(O)(Cn2cncn2)c2ccc(F)cc2F)c(C)c1 (stereo not given)			0.25 to 1 µg/mL (≈ 0.582 to 2.33 µM)	0.0156 µg/mL (≈ 0.0363 µM)	0.0156 µg/mL (≈ 0.0363 µM)	0.25 to 1 µg/mL (≈ 0.582 to 2.33 µM)	0.25 to 1 µg/mL (≈ 0.582 to 2.33 µM)	
OC(Cn1cncn1)(Cn1cnc(SCc2cccc(F)c2)n1)c1ccc(F)cc1F (stereo not given)	0.063 to 1 µg/mL (≈ 0.141 to 2.24 µM)	0.063 to 1 µg/mL (≈ 0.141 to 2.24 µM)						
CN(CC(=O)Nc1ccc(OC(F)(F)F)cc1)CC(O)(Cn1cncn1)c1ccc(F)cc1F (stereo not given)			0.25 to 1 µg/mL (≈ 0.515 to 2.06 µM)	0.0156 µg/mL (≈ 0.0321 µM)	0.0156 µg/mL (≈ 0.0321 µM)	0.25 to 1 µg/mL (≈ 0.515 to 2.06 µM)	0.25 to 1 µg/mL (≈ 0.515 to 2.06 µM)	

Now from value to compound, other results behind:

MIC [1]	MIC [2]	MIC80 [3]	MIC80 [4]	MIC80 [5]	MIC80 [6]	MIC80 [7]	Compound	further results
0.063 to 1 µg/mL (≈ 0.124 to 1.97 µM)	0.063 to 1 µg/mL (≈ 0.124 to 1.97 µM)						OC(Cn1cncn1)(Cn1cnc(SCc2ccc(Br)cc2)n1)c1ccc(F)cc1F (stereo not given)	
0.063 to 1 µg/mL (≈ 0.147 to 2.33 µM)	0.063 to 1 µg/mL (≈ 0.147 to 2.33 µM)						OC(Cn1cncn1)(Cn1cnc(SCc2ccccc2)n1)c1ccc(F)cc1F (stereo not given)	
		0.25 to 1 µg/mL (≈ 0.602 to 2.41 µM)	0.0156 µg/mL (≈ 0.0376 µM)	0.0156 µg/mL (≈ 0.0376 µM)	0.25 to 1 µg/mL (≈ 0.602 to 2.41 µM)	0.25 to 1 µg/mL (≈ 0.602 to 2.41 µM)	Cc1ccc(NC(=O)CN(C)CC(O)(Cn2cncn2)c2ccc(F)cc2F)cc1 (stereo not given)	
		0.25 to 1 µg/mL (≈ 0.579 to 2.32 µM)	0.0156 µg/mL (≈ 0.0362 µM)	0.0156 µg/mL (≈ 0.0362 µM)	0.25 to 1 µg/mL (≈ 0.579 to 2.32 µM)	0.25 to 1 µg/mL (≈ 0.579 to 2.32 µM)	COc1ccccc1NC(=O)CN(C)CC(O)(Cn1cncn1)c1ccc(F)cc1F (stereo not given)	
0.063 to 1 µg/mL (≈ 0.141 to 2.24 µM)	0.063 to 1 µg/mL (≈ 0.141 to 2.24 µM)						OC(Cn1cncn1)(Cn1cnc(SCc2ccccc2F)n1)c1ccc(F)cc1F (stereo not given)	
0.063 to 1 µg/mL (≈ 0.133 to 2.11 µM)	0.063 to 1 µg/mL (≈ 0.133 to 2.11 µM)						O=[N+]([O-])c1ccc(CSc2ncn(CC(O)(Cn3cncn3)c3ccc(F)cc3F)n2)cc1 (stereo not given)	

— ChEMBL document CHEMBL4396865, “Current advances of triazole alcohols derived from fluconazole: Design, in vitro and in silico studies” (2019)
